According to paper PMC3701070 (PLoS ONE, 2013):

Columns and labels:
[1] = tested on: HCT-116; parameters: method as in PMID 21245089; settings: HCT-116 cells; read-out: gIC50; cited from earlier work
[2] = tested on: pMEK and pERK in HCT-116 (wild-type BRAF, mutant KRAS) cells; assay: Western blot, paradoxical MAPK activation in HCT-116 cells; assay type: cell-based, human; settings: 100 or 300 nM dabrafenib, co-treatment with 50 nM or 5 nM trametinib, 1 h
Procedure: Cells were lysed in 25 mM Tris-HCl pH 7.5, 2 mM EDTA, 2 mM EGTA, 1% Triton X-100, 0.1% SDS, 50 mM sodium-β-glycerophosphate, 2 mM Na3VO4, 12.5 mM sodium pyrophosphate, 2× Complete EDTA-free mini protease inhibitor tablets (Roche), 2× phosphatase inhibitor cocktails I and II (Sigma-Aldrich). Protein concentrations were determined by Bio-Rad DC™ or dye-based protein assays and lysates were resolved by SDS-PAGE (Invitrogen NuPAGE®) and transferred to PVDF membranes. Membranes were blocked with Odyssey® (LI-COR Biosciences) blocking buffer and incubated with primary antibodies overnight at 4°C. Blots were washed with PBS containing 0.1% Tween-20, incubated with secondary antibodies, and washed again prior to signal detection on a LI-COR Odyssey® reader.
Lysates were immunoblotted for total ERK (tERK) and dual-phosphorylated ERK (ppERK) (B).

For `CC(=O)Nc1cccc(-n2c(=O)n(C3CC3)c(=O)c3c(Nc4ccc(I)cc4F)n(C)c(=O)c(C)c32)c1` [trametinib, reference compound], the IC50 [1] is listed as 21 nM and the “effect on dabrafenib-induced pERK upregulation” value [2] is listed as “abolished”.
